The values below come from patent publication US20260274876A1, “3-PYRROLIDINE-INDOLE DIMERS AS SEROTONERGIC AGENTS USEFUL FOR THE TREATMENT OF DISORDERS RELATED THERETO” (MINDSET PHARMA INC., priority 2022, published 2026).

One assay has as its target T1, human 5-HT1A receptor (Homo sapiens, UniProt P08908).
T1 sequence (P08908 1-422): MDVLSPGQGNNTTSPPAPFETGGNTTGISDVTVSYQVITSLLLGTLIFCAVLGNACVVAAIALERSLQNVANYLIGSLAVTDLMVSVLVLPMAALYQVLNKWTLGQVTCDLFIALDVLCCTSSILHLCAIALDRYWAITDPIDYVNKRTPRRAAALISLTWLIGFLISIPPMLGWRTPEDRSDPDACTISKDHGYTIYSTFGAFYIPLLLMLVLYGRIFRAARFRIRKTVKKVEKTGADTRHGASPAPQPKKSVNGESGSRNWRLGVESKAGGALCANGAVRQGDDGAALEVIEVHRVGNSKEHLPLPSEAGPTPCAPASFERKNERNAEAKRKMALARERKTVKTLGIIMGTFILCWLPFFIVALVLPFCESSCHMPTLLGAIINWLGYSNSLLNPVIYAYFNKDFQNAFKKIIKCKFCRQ
Nature of the assay: Human 5-HT1A radioligand binding assay ([3H]-8-Hydroxy-DPAT). The protocol:
The objective of this study was to evaluate the binding properties of test compounds on 5-hydroxytryptamine receptor 1A (5-HT1A).
• 1. The assay buffer was prepared following the table below.
• 2. 8 doses of reference and test compounds were prepared starting from 10 mM stock solution as required by 5-fold serial dilutions with 100% (v/v) DMSO. • 3. UniFilter-96 GF/B plate was pretreated: • i. 50 μl/well of 0.5% (v/v) PEI was added to UniFilter-96 GF/B plates. The plates were sealed and incubated at 4° C. for 3 hrs. • ii. After incubation, the plates were washed 3 times with ice-cold wash buffer (50 mM Tris, pH7.4). • 4. Assay plate was prepared: • i. Cell membrane was diluted with assay buffer and 100 μl/well was added to 96 round well plates to reach a concentration of 20 μg/well. • ii. 8 concentrations of reference or test compounds were prepared and 50 μl/well was added to 96 round deep well plates. • iii. [3H]-8-Hydroxy-DPAT was diluted with assay buffer to 2 nM (4×final concentration) and 50 μl/well was added to 96 round well plates. • 5. The plate was centrifuged at 1000 rpm for 30 secs and then agitated at 600 rpm, R.T. for 5 min. • 6. The plates were sealed and the plate was incubated at 27° C. for 90 min. • 7. The incubation was stopped by vacuum filtration onto GF/B filter plates followed by 4 times washing with ice-cold wash buffer (50 mM Tris, pH7.4). • 8. The plates were dried at 37° C. for 45 min. • 9. The filter plates were sealed and 40 μl/well of scintillation cocktail was added. • 10. The plate was read by using a Microbeta^2 microplate counter.
• 1. For reference and test compounds, the results were expressed as % Inhibition, using the normalization equation: N=100−100×(U−C2)/(C1−C2), where U is the unknown value, C1 is the average of high controls, and C2 is the average of low controls. • 2. The IC50 was determined by fitting percentage of inhibition as a […] of compound concentrations with Hill equation using XLfit.

A further assay addresses human 5-HT2A receptor (Homo sapiens, UniProt P28223). Description: Human 5-HT2A functional FLIPR assay (agonist mode). The class given is cell-based. The arrangement: expressed in transfected cells. Conditions: for RFU@10 μM: FLIPR, h5-HT2A, curve fitting with activation (%) @ 10 mM with RFU (footnote). The protocol:
The potential excitatory effects of compounds targeting on human 5-hydroxytryptamine receptor 2A (5-HT2A) under agonist mode was assessed.
HTR2A&Gα15-HEK293 cells were cultured in DMEM medium containing 10% dialyzed FBS and 1×penicillin-streptomycin, 100 μg/mL Hygromycin B and 300 μg/mL G418. The cells were passaged about three times a week, maintained between ~30% to ~90% confluence.
• 1. The cell culture medium (DMEM medium containing 10% dialyzed FBS and 1×penicillin-streptomycin, 100 μg/mL Hygromycin B and 300 μg/mL G418), TrypLE™ Express and DPBS to R.T. was warmed in advance. • 2. For induction, 1 μg/ml tetracycline (final concentration) was added to cell culture medium and incubated for 48 hours prior to seeding cells into plate at 37° C., 5% (v/v) CO2. The cell culture medium was removed from flask. Cells were washed with DPBS. • 3. 2 mL TrypLE™ Express was added to the flask, mixed well by gentle shaking and cells were incubated at 37° C. for a few minutes. • 4. The cells were checked for morphological change under microscope, the digestion was stopped by adding 4 mL cell culture medium to the flask when most of cells turned to round. • 5. The cell suspension was transferred into a 15 mL centrifuge tube, and then centrifuged at 1,200 rpm for 5 minutes. • 6. The supernatant was removed. The cell pellet was resuspended with 2 mL cell culture medium. • 7. The cell density was counted using cell counter. Only cells with >85% viability were used for the assay. • 8. Cells were diluted to 6.67×10^5/mL with cell culture medium. • 9. 30 μL/well cell suspensions added into a 384-well cell plate (The cell density was 20,000 cells/well). • 10. The cell plate was incubated overnight at 37° C., 5% (v/v) CO2.
On the day of experiments, culture medium was removed from the cell plate.
10 μL of assay buffer (20 mM HEPES, in 1×HBSS, pH 7.4) was added to each well of the cell plate.
2×dye solution was prepared following the manual of the FLIPR® Calcium 6 Assay Kit: • i. The dye was diluted with assay buffer. • ii. Probenecid was added to the final concentration of 5 mM. • iii. Vortexed vigorously for 1-2 minutes. • 4. 10 μL of 2×dye solution was added to each well of the cell plate • 5. The cell plate was placed on plate shaker, followed by shaking at 600 rpm for 2 minutes. • 6. The plate was incubated at 37° C. for 2 hours followed by an additional 15-minute incubation at 25° C. 2.4 Prepare 3×compound • 1. Serotonin HCl was prepared to the concentration of 10 mM with DMSO. • 2. The test compounds were prepared to the concentration of 10 mM with DMSO. • 3. The compounds were added to a 384-well compound source plate. • 4. 3-folds serial dilutions were performed with DMSO. • 5. 90 nL/well of serial diluted compounds was transferred from source plate to a 384-well compound plate by using an Echo. • 6. 30 μL/well of assay buffer (20 mM HEPES in 1×HBSS, pH 7.4) was added to the compound plate. • 7. The plate was mixed on-plate shaker for 2 minutes.
• 1. After the cells were incubated with dye solution, the cell plate, compound plate containing 3×compounds and FLIPR tips were placed into FLIPR. • 2. 10 μL of 3×compounds transferred from the compound plate to the cell plate by FLIPR. • 3. The plate was read for 160 sec with 1 sec interval and the data of agonist mode was obtained.
• 1. The normalized fluorescence reading (RFU) was calculated as shown below, wherein Fmax and Fmin stand for maximum and minimum of calcium signal during defined time window:
[formula] • 2. EC50 by fitting RFU against log of compound concentrations with Hill equation was calculated using XLfit.

The mark [1] stands for this setting: FLIPR agonist mode, HTR2A&Gα15-HEK293 cells, ND: not detected, read-out: h5-HT2A, EC50.

Read-outs that look alike come from different tables or passages of the source.

Sequence of human 5-HT2A receptor (P28223 whole entry): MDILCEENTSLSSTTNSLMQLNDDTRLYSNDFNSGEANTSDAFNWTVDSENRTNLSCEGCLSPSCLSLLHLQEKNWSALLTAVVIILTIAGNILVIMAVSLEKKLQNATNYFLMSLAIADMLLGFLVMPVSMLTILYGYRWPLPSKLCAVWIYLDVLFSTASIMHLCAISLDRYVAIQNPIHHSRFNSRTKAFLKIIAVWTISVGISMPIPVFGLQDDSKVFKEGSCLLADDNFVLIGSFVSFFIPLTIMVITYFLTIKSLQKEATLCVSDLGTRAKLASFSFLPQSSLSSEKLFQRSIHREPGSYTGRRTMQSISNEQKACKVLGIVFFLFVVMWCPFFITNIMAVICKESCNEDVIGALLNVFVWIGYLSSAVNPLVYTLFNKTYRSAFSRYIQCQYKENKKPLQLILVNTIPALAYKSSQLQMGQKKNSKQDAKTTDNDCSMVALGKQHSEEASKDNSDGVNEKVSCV

`CN1CCC[C@@H]1Cc1c[nH]c2cccc(OC(=O)CCCC(=O)Oc3cccc4[nH]cc(C[C@H]5CCCN5C)c34)c12` [Compound I-13, Bis(3-(((R)-1-methylpyrrolidin-2-yl)methyl)-1H-indol-4-yl) glutarate]: the half-maximal inhibitory concentration (IC50) on human 5-HT1A receptor was found to be 0.154 µM. For the same compound, the concentration giving a half-maximal response (EC50) on human 5-HT2A receptor (setting [1]) is 0.0323 µM. Moreover, at human 5-HT2A receptor, the “RFU@10 μM” value is 3887 RFU.
In the case of `CN1CCC[C@@H]1Cc1c[nH]c2cccc(O)c12` [Compound 10, (R)-3-((1-methylpyrrolidin-2-yl)methyl)-1H-indol-4-ol], the IC50 on human 5-HT1A receptor amounted to 0.148 µM. On human 5-HT2A receptor, a half-maximal response (EC50) required 0.047 µM and the “RFU@10 μM” value is recorded as 2929 RFU.
For the compound `CN(C)CCc1c[nH]c2cccc(O)c12` [Psilocin, 4-hydroxy-N,N-dimethyltryptamine, reference compound], the IC50 on human 5-HT1A receptor (radioligand binding, [3H]-8-Hydroxy-DPAT, read-out: h5-HT1A, IC50) is 0.196 µM. The “RFU@10 μM” value on human 5-HT2A receptor is given as 308 RFU.
On human 5-HT1A receptor, `[2H]C([2H])(c1c[nH]c2cccc(O)c12)[C@H]1CCCN1C([2H])([2H])[2H]` [Compound 13, (R)-3-((1-(methyl-d3)pyrrolidin-2-yl)methyl-d2)-1H-indol-4-ol] yielded an IC50 of 0.156 µM. Also, at human 5-HT2A receptor, the EC50 was 0.044 µM and the “RFU@10 μM” value was found to be 3108 RFU.
Compound `[2H]C([2H])(c1c[nH]c2cccc(OC(=O)CCCC(=O)Oc3cccc4[nH]cc(C([2H])([2H])[C@H]5CCCN5C([2H])([2H])[2H])c34)c12)[C@H]1CCCN1C([2H])([2H])[2H]` [Compound I-22, bis(3-(((R)-1-(methyl-d3)pyrrolidin-2-yl)methyl-d2)-1H-indol-4-yl) glutarate] showed a concentration for half-maximal inhibition (IC50) at human 5-HT1A receptor of 0.124 µM. For the same compound, the EC50 at human 5-HT2A receptor (setting [1]) came out at 0.0131 µM. Moreover, on human 5-HT2A receptor, the “RFU@10 μM” value is listed as 5409 RFU.

In general, IC50 refers to the concentration that gives 50% inhibition. As a reminder, the EC50 is the concentration needed to bring the measured effect to its halfway point.
